The record followed here is ChEMBL document CHEMBL4354831, “Novel Cell-Penetrating Peptide Conjugated Proteasome Inhibitors: Anticancer and Antifungal Investigations” (J Med Chem, 2020).

Values after ≈ are worked out from the molar mass of the structure shown. Active and inactive are the calls of the source. The calls are words filed in the database; no cut-off is given here. Peptide text beside a SMILES is read from it. A value given as a limit tells only on which side of the number the result lay.

Experiment [1] concerns HeLa. The experiment is described as follows: Antiproliferative activity against human HeLa cells assessed as reduction in cell viability after 48 hrs by MTT assay. The experiment is classed as functional, cell-based.
For experiment [2], the system named is BE(2)-C. The experiment is described as follows: Antiproliferative activity against human BE(2)-C cells assessed as reduction in cell viability after 48 hrs by MTT assay. It is filed as functional, cell-based.
Experiment [3] has as its system HeLa. Put plainly: Antiproliferative activity against human HeLa cells assessed as reduction in cell viability at 1000 uM after 48 hrs by MTT assay relative to control. It is filed as functional.
Experiment [4] deals with BE(2)-C. The experiment is described as follows: Antiproliferative activity against human BE(2)-C cells assessed as reduction in cell viability at 1000 uM after 48 hrs by MTT assay relative to control. The experiment is classed as functional.
Experiment [5] relates to HeLa. Put plainly: Induction of pore formation in human HeLa cell membrane at 2xIC50 after 12 hrs by SEM analysis. The experiment is classed as cell-based.
For experiment [6], the system named is BE(2)-C. Put plainly: Induction of pore formation in human BE(2)-C cell membrane at 2xIC50 after 12 hrs by SEM analysis. The experiment is classed as functional, cell-based.
The subject of experiment [7] is HeLa. Put plainly: Induction of membrane blebbing in human HeLa cells at 2xIC50 after 12 hrs by SEM analysis. The experiment is classed as cell-based. As to conditions: Cell membrane.
For experiment [8], the system named is BE(2)-C. Put plainly: Induction of membrane blebbing in human BE(2)-C cells at 2xIC50 after 12 hrs by SEM analysis. The settings on record: Cell membrane. It is filed as cell-based.
In experiment [9] the test system is Candida albicans. Put plainly: Antifungal activity against Candida albicans SC5314 at 100 uM after 48 hrs. It is filed as functional, organism-based.
Experiment [10] is described as follows: Selectivity ratio of IC50 for antiproliferative activity against human BE(2)-C cells to IC50 for antiproliferative activity against human HeLa cells after 48 hrs by MTT assay. The experiment is classed as functional.
In another experiment the target is 20S proteasome. The experiment is described as follows: Inhibition of human 20S proteasome using Suc-LLVY-AMC as substrate measured every 5 mins for 120 mins by fluorescence based assay. It is filed as protein-complex assay.
In experiment [11] the test system is Candida albicans. The experiment is described as follows: Antifungal activity against Candida albicans SC5314 after 48 hrs. It is filed as functional. As to conditions: SC5314, 48 h.
The test system of experiment [12] is Candida albicans. Put plainly: Induction of pore formation in Candida albicans SC5314 membrane by SEM analysis. It is filed as organism-based. As to conditions: Cell membrane.
In experiment [13] the test system is Candida albicans. Put plainly: Induction of hyphal disruption in Candida albicans SC5314 by SEM analysis. It is filed as organism-based. As to conditions: Hyphae.

In the case of `CC(=O)N[C@@H](Cc1ccc(O)cc1)C(=O)NCC(=O)N[C@@H](CCCNC(=N)N)C(=O)N[C@@H](CCCCN)C(=O)N[C@@H](CCCCN)C(=O)N[C@@H](CCCNC(=N)N)C(=O)N[C@@H](CCCNC(=N)N)C(=O)N[C@@H](CCC(N)=O)C(=O)N[C@@H](CCCNC(=N)N)C(=O)N[C@@H](CCCNC(=N)N)C(=O)N[C@@H](CCCNC(=N)N)C(=O)O`, the half-maximal inhibitory concentration (IC50) in the experiment with HeLa [1] is 62.5 µM; in the experiment with BE(2)-C [2], 94 µM. In addition, the inhibition at 1000 µM in the experiment with HeLa [3] and in the experiment on BE(2)-C [4] was 70% throughout. Further, the result with HeLa [5], in the experiment with BE(2)-C [6], with HeLa [7], with BE(2)-C [8] and in the experiment with Candida albicans [9] was inactive.

Turning to `CC(=O)N[C@@H](CC(C)C)C(=O)N[C@@H](CC(C)C)C(=O)N[C@H](C=O)CC(C)C` (Ac-Leu-Leu-Leu-aldehyde), the IC50 with HeLa [1] turned out to be 39.1 µM; in the experiment with BE(2)-C [2], 61.3 µM; against 20S proteasome, 0.136 µM. Besides, the “Ratio IC50” value in [10] is given as 1.5. Further, the MIC in the experiment on Candida albicans [11] is above 100 µM.

With `CC(=O)N[C@@H](Cc1ccc(O)cc1)C(=O)N[C@@H](CC(C)C)C(=O)N[C@@H](Cc1ccccc1)C(=O)N[C@H](C=O)CC(C)C` (Ac-YLFL-aldehyde), the IC50 with HeLa [1] stood at 29.4 µM; in the experiment with BE(2)-C [2] it was 43.3 µM; against 20S proteasome, 0.0064 µM. Further, the “Ratio IC50” value in experiment [10] came to 1.5. For the same compound, the MIC in the experiment with Candida albicans [11] is above 100 µM.

`C[C@@H]1[C@H](O)[C@@H](C)/C=C/C=C/C=C/C=C/C=C/C=C/C=C/[C@H](O[C@@H]2O[C@H](C)[C@@H](O)[C@H](N)[C@@H]2O)C[C@@H]2O[C@](O)(C[C@@H](O)C[C@@H](O)[C@H](O)CC[C@@H](O)C[C@@H](O)CC(=O)O[C@H]1C)C[C@H](O)[C@H]2C(=O)O` [AMPHOTERICIN B] showed an MIC in the experiment with Candida albicans [11] of 1.56 µM (≈ 1.44 µg/mL). In the experiment with Candida albicans [12], the outcome was Active. Also, the result with Candida albicans [13] was inactive.
